US5514694A, “Peptidyl ketoamides” (Georgia Tech Research Corp, priority 1993, dated 1996)
Where two headings read alike, the source gives them in different places.

Columns and labels:
Assay type in all cases: biochemical
[1] = biological target: T1, Calpain I from human erythrocytes (Homo sapiens, UniProt P07384); assay: Calpain I inhibition, Suc-Leu-Tyr-AMC hydrolysis (KI); details: read-out: KI Cal I
T1 construct: Calpain I was purified from human erythrocytes; from tissue; host or cells: human erythrocytes
T1 sequence (P07384 1-714): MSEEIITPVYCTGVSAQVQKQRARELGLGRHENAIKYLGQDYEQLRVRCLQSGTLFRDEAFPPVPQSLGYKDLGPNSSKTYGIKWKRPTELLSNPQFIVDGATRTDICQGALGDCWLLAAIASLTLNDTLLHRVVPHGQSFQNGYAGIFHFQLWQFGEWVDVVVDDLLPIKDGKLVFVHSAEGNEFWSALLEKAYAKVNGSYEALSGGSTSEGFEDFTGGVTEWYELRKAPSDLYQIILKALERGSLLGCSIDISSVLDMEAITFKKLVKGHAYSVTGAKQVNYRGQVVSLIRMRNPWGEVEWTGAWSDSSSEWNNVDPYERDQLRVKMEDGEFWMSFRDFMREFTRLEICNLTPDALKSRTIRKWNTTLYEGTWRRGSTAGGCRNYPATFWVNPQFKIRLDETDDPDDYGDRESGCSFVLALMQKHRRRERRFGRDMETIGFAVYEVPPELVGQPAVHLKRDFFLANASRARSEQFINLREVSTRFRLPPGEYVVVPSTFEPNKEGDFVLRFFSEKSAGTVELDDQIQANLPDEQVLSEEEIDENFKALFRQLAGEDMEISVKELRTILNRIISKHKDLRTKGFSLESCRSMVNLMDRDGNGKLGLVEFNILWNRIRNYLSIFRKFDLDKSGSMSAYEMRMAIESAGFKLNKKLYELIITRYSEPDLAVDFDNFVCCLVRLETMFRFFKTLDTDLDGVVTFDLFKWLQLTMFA
T1 sequence (P04632 1-268 partner): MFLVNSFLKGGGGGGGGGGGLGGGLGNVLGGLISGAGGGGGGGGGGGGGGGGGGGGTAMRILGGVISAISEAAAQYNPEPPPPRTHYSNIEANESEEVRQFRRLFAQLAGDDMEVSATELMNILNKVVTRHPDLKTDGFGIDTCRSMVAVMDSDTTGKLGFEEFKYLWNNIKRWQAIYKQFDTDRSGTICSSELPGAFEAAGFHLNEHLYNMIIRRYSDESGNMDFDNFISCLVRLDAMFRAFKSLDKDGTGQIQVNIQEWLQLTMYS
Experimental: (§1) HEPES, heparin, and A23187 were obtained from Calbiochem. Suc-Leu-Tyr-AMC and chromogenic substrates were obtained from Sigma. Calpain I was purified from human erythrocytes according to the method of Kitahara (Kitahara et al., J. Biochem. 95, 1759-1766) omitting the Blue-Sepharose step. Calpain II from rabbit muscle and cathepsin B were purchased from Sigma. Papain was purchased from Calbiochem.
(§2) Peptide α-ketoamides were assayed as reversible enzyme inhibitors. Various concentrations of inhibitors in Me2 SO were added to the assay mixture which contained buffer and substrate. The reaction was started by the addition of the enzyme and the hydrolysis rates were followed spectrophotometrically or fluorimetrically.
(§3) Calpain I from human erythrocytes and calpain II from rabbit were assayed using Suc-Leu-Tyr-AMC Sasaki et al., J. Biol. Chem. 259, 12489-12494 (1984); incorporated herein by reference!, and the AMC (7-amino-4-methylcoumarin) release was followed fluorimetrically (excitation at 380 nm, and emmision at 460 nm). Calpains were assayed in 25 mM Tris pH=8.0, 10 mM CaC12. Fluorescence was followed using a Gilson FL-1A fluorometer or a Perkin-Elmer 203 Fluorescence spectrometer. Cathepsin B was assayed in 20 mM sodium acetate pH=5.2, 0.5 mM dithiothreitol using Bz-Phe-Val-Arg-p-nitroanilide as substrate. Alternately, cathepsin B was assayed with Z-Arg-Arg-AFC Barrett and Kirschke, Methods Enzymol. 80, 535-561 (1981); incorporated herein by reference!, and the AFC (7-amino-4-trifluoromethylcoumarin) release was followed fluorimetrically (excitation at 400 nm and emmision at 505 nm). Papain was assayed in 100 mM KPO4, 1 mM EDTA, 2.5 mM cysteine pH=6.0 using Bz-Arg-AMC or Bz-Arg-NA Kanaoka et al., Chem. Pharm. Bull. 25, 3126-3128 (1977); incorporated herein by reference! as a substrate. The AMC (7-amino-4-methylcoumarin) release was followed fluorimetrically (excitation at 380 nm, and emmision at 460 nm). Enzymatic hydrolysis rates were measured at various substrate and inhibitor concentrations, and KI values were determined by either Lineweaver-Burk plots or Dixon plots.
(§4) A 0.1M Hepes, 0.5M NaCl, pH 7.5 buffer was utilized for human leukocyte elastase (HLE), porcine pancreatic elastase (PPE), chymotrypsin and cathepsin G. A 0.1 Hepes, 0.01 M CaCl2, pH 7.5 buffer was utilized for trypsin, plasmin, and coagulation enzymes. A 50 mM Tris.HCl, 2 mM EDTA, 5 mM cysteine, pH 7.5 was used as a buffer for papain. A 88 mM KH2 PO4, 12 mM Na2 HPO4, 1.33 mM EDTA, 2.7 mM cysteine, pH 6.0 solution was used as a buffer for cathepsin B. A 20 mM Hepes, 10 mM CaCl2, 10 mM mercatoethanol, pH 7.2 buffer was utilized for calpain I and calpain II.

calpain II from rabbit = assay: Calpain II inhibition, Suc-Leu-Tyr-AMC hydrolysis (KI); details: for Ki: read-out: KI Cal II
Experimental: as §1, §2, §3, §4

cathepsin B = biological target: T2, cathepsin B (Homo sapiens, UniProt P07858); assay: Cathepsin B inhibition (KI); details: read-out: KI Cat B
T2 construct: purchased Sigma
Experimental: as §1, §2, §3, §4

[2] = Table 2, Z-Leu--AA--CONH--CH2 CH(OH)-R

Ki ([1]; Table 1, Z-Leu--AA--CONHR) [nM]	Ki (cathepsin B; Table 1, Z-Leu--AA--CONHR) [nM]	Ki (calpain II from rabbit; Table 1, Z-Leu--AA--CONHR) [nM]	SMILES	other results
1000	2500		CCC(NC(=O)[C@H](CC(C)C)NC(=O)OCc1ccccc1)C(=O)C(=O)NCCN1CCOCC1 (stereo partly drawn) [Z-Leu-Abu-CONH-(CH2)2 -4-morpholinyl, Z-Leu-Abu-CONH--(CH2)2 -4-Morpholinyl]	
130	630		CC[C@H](NC(=O)[C@H](CC(C)C)NC(=O)OCc1ccccc1)C(=O)C(=O)NCCc1ccccc1OC [Z-Leu-Abu-CONH-(CH2)2 C6 H4 (2-OCH3), Z-Leu-Abu-CONH--(CH2)2 C6 H4 (2-OCH3)]	
120	440	46	CCC(NC(=O)C(CC(C)C)NC(=O)OCc1ccccc1)C(=O)C(=O)NCCc1ccc(OC)cc1 (stereo not drawn) [Z-Leu-Abu-CONH-(CH2)2 C6 H4 (4-OCH3), Z-Leu-Abu-CONH--(CH2)2 C6 H4 (4-OCH3)]	
	1200	76	CCC(NC(=O)[C@H](CC(C)C)NC(=O)OCc1ccccc1)C(=O)C(=O)NCCc1cccn1C (stereo partly drawn) [Z-Leu-Abu-CONH--(CH2)2-2-(N-Methylpyrrole)]	
1200	2000	270	CCC(NC(=O)C(CC(C)C)NC(=O)OCc1ccccc1)C(=O)C(=O)NCCCN1CCCC1=O (stereo not drawn) [Z-Leu-Abu-CONH--(CH2)3 -1-Pyrrolidinyl-2-one]	
310	8000		CCC(NC(=O)C(CC(C)C)NC(=O)OCc1ccccc1)C(=O)C(=O)NCCCN1CCc2ccccc2C1 (stereo not drawn) [Z-Leu-Abu-CONH--(CH2)3 -2-Tetrahydroisoquinolinyl]	
250	300		CCC(NC(=O)C(CC(C)C)NC(=O)OCc1ccccc1)C(=O)C(=O)NCc1nccc2ccccc12 (stereo not drawn) [Z-Leu-Abu-CONH-CH2 -1-isoquinolinyl, Z-Leu-Abu-CONH--CH2 -1-Isoquinolinyl]	
2400	9600		CC(C)C[C@H](NC(=O)OCc1ccccc1)C(=O)NC(Cc1ccccc1)C(=O)C(=O)NCc1nccc2ccccc12 (stereo partly drawn) [Z-Leu-Phe-CONH-CH2 -1-isoquinolinyl, Z-Leu-Phe-CONH--CH2 -1-Isoquinolinyl]	
	270	650	CC(C)CC(NC(=O)OCc1ccccc1)C(=O)NC(Cc1ccccc1)C(=O)C(=O)NCc1ccccn1 (stereo not drawn) [Z-Leu-Phe-CONH-CH2 -2-pyridyl, Z-Leu-Phe-CONH--CH2 -2-Pyridyl]	

Further lines, the compound ahead of its results:

SMILES	Ki ([1]; Table 1, Z-Leu--AA--CONHR) [nM]	Ki (cathepsin B; Table 1, Z-Leu--AA--CONHR) [nM]	Ki (calpain II from rabbit; Table 1, Z-Leu--AA--CONHR) [nM]	other results
CC(C)CC(NC(=O)C(c1ccccc1)c1ccccc1)C(=O)NC(Cc1ccccc1)C(=O)C(=O)NCc1ccccn1 (stereo not drawn) [Ph2 CH-CO-Leu-Phe-CONH-CH2 -2-pyridyl, Ph2 CHCO-Leu-Phe-CONH--CH2 -2-Pyridyl]				Ki ([1]; Table 3, M1 CO-Leu--AA--CONH-R): 1100 nM; Ki (calpain II from rabbit; Table 3, M1 CO-Leu--AA--CONH-R): 360 nM; Ki (cathepsin B; Table 3, M1 CO-Leu--AA--CONH-R): 2200 nM
CCC(NC(=O)C(CC(C)C)NC(=O)C(c1ccccc1)c1ccccc1)C(=O)C(=O)NCCCN1CCOCC1 (stereo not drawn) [Ph2 CHCO-Leu-Abu-CONH--N--(CH2)3 -Morpholinyl]				Ki ([1]; Table 3, M1 CO-Leu--AA--CONH-R): 800 nM; Ki (calpain II from rabbit; Table 3, M1 CO-Leu--AA--CONH-R): 110 nM; Ki (cathepsin B; Table 3, M1 CO-Leu--AA--CONH-R): 2300 nM
CC(C)CC(NC(=O)C(c1ccccc1)c1ccccc1)C(=O)NC(Cc1ccccc1)C(=O)C(=O)NCCCN1CCOCC1 (stereo not drawn) [Ph2 CHCO-Leu-Phe-CONH--(CH2)3 -4-Morpholinyl]				Ki ([1]; Table 3, M1 CO-Leu--AA--CONH-R): 760 nM; Ki (calpain II from rabbit; Table 3, M1 CO-Leu--AA--CONH-R): 74 nM; Ki (cathepsin B; Table 3, M1 CO-Leu--AA--CONH-R): 3800 nM
CC[C@H](NC(=O)[C@H](CC(C)C)NC(=O)OCc1ccccc1)C(=O)C(=O)NCCOCCO [Z-Leu-Abu-CONH-(CH2)2 O(CH2)2 OH, Z-Leu-Abu-CONH--(CH2)2 O(CH2)2 OH]		2000		
CCC(NC(=O)C(CC(C)C)NC(=O)OCc1ccccc1)C(=O)C(=O)NCCO (stereo not drawn) [Z-Leu-Abu-CONH-(CH2)2 OH, Z-Leu-Abu-CONH--(CH2)2 OH]	800	4500		
CCC(NC(=O)C(CC(C)C)NC(=O)OCc1ccccc1)C(=O)C(=O)NCCCn1ccnc1 (stereo not drawn) [Z-Leu-Abu-CONH-(CH2)3 -1-imidazolyl, Z-Leu-Abu-CONH--(CH2)3 -1-Imidazolyl]	290	9900	68	
CC[C@H](NC(=O)[C@H](CC(C)C)NC(=O)OCc1ccccc1)C(=O)C(=O)NCCCCCO [Z-Leu-Abu-CONH-(CH2)5 OH, Z-Leu-Abu-CONH--(CH2)5 OH]		280	51	
CCC(NC(=O)C(CC(C)C)NC(=O)OCc1ccccc1)C(=O)C(=O)NCC1(C)CC(O)CC(C)(C)C1 (stereo not drawn) [Z-Leu-Abu-CONH--CH2 --C6 H8 (1,3,3-(CH3)3 -5-OH)]	420	890	69	
CCC(NC(=O)C(CC(C)C)NC(=O)OCc1ccccc1)C(=O)C(=O)NCc1ccccn1 (stereo not drawn) [Z-Leu-Abu-CONH-CH2 -2-pyridyl, Z-Leu-Abu-CONH--CH2 -2-Pyridyl]	640	3000	17	inhibition of calpain II, in words (calpain II from rabbit): best inhibitor of calpain II
CCC(NC(=O)C(CC(C)C)NC(=O)OCc1ccccc1)C(=O)C(=O)NCC1CCCO1 (stereo not drawn) [Z-Leu-Abu-CONH-CH2 -2-tetrahydrofuryl, Z-Leu-Abu-CONH--CH2 -2-Tetrahydrofuryl]	330	4500	66	
CCC(NC(=O)C(CC(C)C)NC(=O)OCc1ccccc1)C(=O)C(=O)NCc1cccnc1 (stereo not drawn) [Z-Leu-Abu-CONH-CH2 -3-pyridyl, Z-Leu-Abu-CONH--CH2 -3-Pyridyl]		1200	120	inhibition of calpain II, in words (calpain II from rabbit): substantially poorer inhibitors
CCC(NC(=O)C(CC(C)C)NC(=O)OCc1ccccc1)C(=O)C(=O)NCc1ccncc1 (stereo not drawn) [Z-Leu-Abu-CONH-CH2 -4-pyridyl, Z-Leu-Abu-CONH--CH2 -4-Pyridyl]	1100	6400	110	inhibition of calpain II, in words (calpain II from rabbit): substantially poorer inhibitors
CC[C@H](NC(=O)[C@H](CC(C)C)NC(=O)OCc1ccccc1)C(=O)C(=O)NCc1cc(OC)cc(OC)c1 [Z-Leu-Abu-CONH-CH2 C6 H3 (3,5-(OCH3)2), Z-Leu-Abu-CONH--CH2 C6 H3 (3,5-(OCH3)2]	2300	1800	22	
CCC(NC(=O)C(CC(C)C)NC(=O)OCc1ccccc1)C(=O)C(=O)NCC(O)c1ccccc1 (stereo not drawn) [Z-Leu-Abu-CONH-CH2 CH(OH)-Ph, Z-Leu-Abu-CONH--CH2 CH(OH)Ph]				Ki [1, 2]: 1100 nM; inhibition of calpain II, in words (calpain II from rabbit): best inhibitor for calpain II; Ki (calpain II from rabbit; [2]): 15 nM; Ki (cathepsin B; [2]): 370 nM
